Source: PubChem BioAssay (NCI)
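Grown in 96-well plates, cells were treated for 48 hours with each compound at five concentrations. Insufficient inhibition: endpoint recorded as highest concentration tested. GI50: concentration for 50% inhibition of growth. TGI: concentration producing complete growth inhibition.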

How the values were obtained:
Experiment in all cases: NCI-60 cell line screen, 48 h
MCF7 breast = system: MCF7 breast
HS 578T breast = system: HS 578T breast
HL-60(TB) leukemia = system: HL-60(TB) leukemia
OVCAR-8 ovarian = system: OVCAR-8 ovarian
OVCAR-3 ovarian = system: OVCAR-3 ovarian
SF-295 CNS = system: SF-295 CNS
ACHN renal = system: ACHN renal
DU-145 prostate = system: DU-145 prostate
LOX IMVI melanoma = system: LOX IMVI melanoma
SW-620 colon = system: SW-620 colon
UO-31 renal = system: UO-31 renal
TK-10 renal = system: TK-10 renal
COLO 205 colon = system: COLO 205 colon
UACC-62 melanoma = system: UACC-62 melanoma
HCC-2998 colon = system: HCC-2998 colon
UACC-257 melanoma = system: UACC-257 melanoma
K-562 leukemia = system: K-562 leukemia
SN12C renal = system: SN12C renal
SR leukemia = system: SR leukemia
BT-549 breast = system: BT-549 breast
SF-539 CNS = system: SF-539 CNS
NCI/ADR-RES ovarian = system: NCI/ADR-RES ovarian
HOP-62 NSCLC = system: HOP-62 NSCLC
CCRF-CEM leukemia = system: CCRF-CEM leukemia
MDA-MB-231 breast = system: MDA-MB-231 breast
NCI-H522 lung = system: NCI-H522 lung
A498 renal = system: A498 renal
NCI-H23 lung = system: NCI-H23 lung
HCT-116 colon = system: HCT-116 colon
CAKI-1 renal = system: CAKI-1 renal
SK-MEL-5 melanoma = system: SK-MEL-5 melanoma
SK-OV-3 ovarian = system: SK-OV-3 ovarian
MOLT-4 leukemia = system: MOLT-4 leukemia
SNB-75 CNS = system: SNB-75 CNS
OVCAR-5 ovarian = system: OVCAR-5 ovarian
SNB-19 CNS = system: SNB-19 CNS
PC-3 prostate = system: PC-3 prostate
OVCAR-4 ovarian = system: OVCAR-4 ovarian
MALME-3M melanoma = system: MALME-3M melanoma
IGROV1 ovarian = system: IGROV1 ovarian
M14 melanoma = system: M14 melanoma
RXF 393 renal = system: RXF 393 renal
KM12 colon = system: KM12 colon
U251 CNS = system: U251 CNS
786-0 renal = system: 786-0 renal
NCI-H226 lung = system: NCI-H226 lung
HCT-15 colon = system: HCT-15 colon
HOP-92 NSCLC = system: HOP-92 NSCLC
SK-MEL-2 melanoma = system: SK-MEL-2 melanoma
NCI-H460 lung = system: NCI-H460 lung
SF-268 CNS = system: SF-268 CNS
HT29 colon = system: HT29 colon
SK-MEL-28 melanoma = system: SK-MEL-28 melanoma
A549 NSCLC = system: A549 NSCLC
RPMI-8226 leukemia = system: RPMI-8226 leukemia
MDA-MB-435 = system: MDA-MB-435
T-47D breast = system: T-47D breast

Compound: O=C1NC(=NCc2ccccc2Br)S/C1=C\c1ccc2ncccc2c1
- GI50 (MCF7 breast): 4.07 µM
- TGI (MCF7 breast): > 25 µM
- GI50 (HS 578T breast): 6.28 µM
- TGI (HS 578T breast): 24.4 µM
- GI50 (HL-60(TB) leukemia): 7.96 µM
- TGI (HL-60(TB) leukemia): > 23.4 µM
- GI50 (OVCAR-8 ovarian): 9.14 µM
- TGI (OVCAR-8 ovarian): > 25 µM
- GI50 (OVCAR-3 ovarian): 10 µM
- TGI (OVCAR-3 ovarian): > 25 µM
- GI50 (SF-295 CNS): 8.03 µM
- TGI (SF-295 CNS): > 25 µM
- GI50 (ACHN renal): 10.6 µM
- TGI (ACHN renal): > 25 µM
- GI50 (DU-145 prostate): 8.69 µM
- TGI (DU-145 prostate): > 25 µM
- GI50 (LOX IMVI melanoma): 4.7 µM
- TGI (LOX IMVI melanoma): > 25 µM
- GI50 (SW-620 colon): 6.71 µM
- TGI (SW-620 colon): > 25 µM
- GI50 (UO-31 renal): 8.08 µM
- TGI (UO-31 renal): > 22 µM
- GI50 (TK-10 renal): 14.8 µM
- TGI (TK-10 renal): > 25 µM
- GI50 (COLO 205 colon): 5.4 µM
- TGI (COLO 205 colon): > 25 µM
- GI50 (UACC-62 melanoma): 11.8 µM
- TGI (UACC-62 melanoma): > 25 µM
- GI50 (HCC-2998 colon): 24.3 µM
- TGI (HCC-2998 colon): > 25 µM
- GI50 (UACC-257 melanoma): 17.8 µM
- TGI (UACC-257 melanoma): > 25 µM
- GI50 (K-562 leukemia): 8.19 µM
- TGI (K-562 leukemia): > 25 µM
- GI50 (SN12C renal): 9.31 µM
- TGI (SN12C renal): > 25 µM
- GI50 (SR leukemia): 1.03 µM
- TGI (SR leukemia): 8.39 µM
- GI50 (BT-549 breast): 6.32 µM
- TGI (BT-549 breast): > 22.3 µM
- GI50 (SF-539 CNS): 5.84 µM
- TGI (SF-539 CNS): > 25 µM
- GI50 (NCI/ADR-RES ovarian): 11.9 µM
- TGI (NCI/ADR-RES ovarian): > 25 µM
- GI50 (HOP-62 NSCLC): 5.93 µM
- TGI (HOP-62 NSCLC): > 17.5 µM
- GI50 (CCRF-CEM leukemia): 7.26 µM
- TGI (CCRF-CEM leukemia): > 25 µM
- GI50 (MDA-MB-231 breast): 15 µM
- TGI (MDA-MB-231 breast): > 25 µM
- GI50 (NCI-H522 lung): 6.22 µM
- TGI (NCI-H522 lung): 16.5 µM
- GI50 (A498 renal): 5.55 µM
- TGI (A498 renal): > 21.4 µM
- GI50 (NCI-H23 lung): 11.5 µM
- TGI (NCI-H23 lung): > 25 µM
- GI50 (HCT-116 colon): 2.74 µM
- TGI (HCT-116 colon): > 25 µM
- GI50 (CAKI-1 renal): 7.18 µM
- TGI (CAKI-1 renal): > 25 µM
- GI50 (SK-MEL-5 melanoma): 10.4 µM
- TGI (SK-MEL-5 melanoma): > 25 µM
- GI50 (SK-OV-3 ovarian): 8.11 µM
- TGI (SK-OV-3 ovarian): > 18.6 µM
- GI50 (MOLT-4 leukemia): 10 µM
- TGI (MOLT-4 leukemia): > 25 µM
- GI50 (SNB-75 CNS): 3.82 µM
- TGI (SNB-75 CNS): > 23.7 µM
- GI50 (OVCAR-5 ovarian): > 25 µM
- TGI (OVCAR-5 ovarian): > 25 µM
- GI50 (SNB-19 CNS): 9.4 µM
- TGI (SNB-19 CNS): > 25 µM
- GI50 (PC-3 prostate): 15.2 µM
- TGI (PC-3 prostate): > 25 µM
- GI50 (OVCAR-4 ovarian): 7.35 µM
- TGI (OVCAR-4 ovarian): > 25 µM
- GI50 (MALME-3M melanoma): > 15.3 µM
- TGI (MALME-3M melanoma): > 25 µM
- GI50 (IGROV1 ovarian): 7.68 µM
- TGI (IGROV1 ovarian): > 21.2 µM
- GI50 (M14 melanoma): 11.1 µM
- TGI (M14 melanoma): > 25 µM
- GI50 (RXF 393 renal): 8.07 µM
- TGI (RXF 393 renal): > 25 µM
- GI50 (KM12 colon): 10.6 µM
- TGI (KM12 colon): > 25 µM
- GI50 (U251 CNS): 4.77 µM
- TGI (U251 CNS): > 25 µM
- GI50 (786-0 renal): 9.43 µM
- TGI (786-0 renal): > 25 µM
- GI50 (NCI-H226 lung): 8.06 µM
- TGI (NCI-H226 lung): > 25 µM
- GI50 (HCT-15 colon): 4.36 µM
- TGI (HCT-15 colon): > 25 µM
- GI50 (HOP-92 NSCLC): 6.89 µM
- TGI (HOP-92 NSCLC): > 23.3 µM
- GI50 (SK-MEL-2 melanoma): 7.66 µM
- TGI (SK-MEL-2 melanoma): 19 µM
- GI50 (NCI-H460 lung): 6.1 µM
- TGI (NCI-H460 lung): > 25 µM
- GI50 (SF-268 CNS): 7.83 µM
- TGI (SF-268 CNS): > 25 µM
- GI50 (HT29 colon): 10.7 µM
- TGI (HT29 colon): > 25 µM
- GI50 (SK-MEL-28 melanoma): > 20.5 µM
- TGI (SK-MEL-28 melanoma): > 25 µM
- GI50 (A549 NSCLC): 5.99 µM
- TGI (A549 NSCLC): > 25 µM
- GI50 (RPMI-8226 leukemia): 8.74 µM
- TGI (RPMI-8226 leukemia): > 25 µM
- GI50 (MDA-MB-435): 5.62 µM
- TGI (MDA-MB-435): > 25 µM
- GI50 (T-47D breast): 6.78 µM
- TGI (T-47D breast): 24.5 µM
